In patent publication US6262108A, “Medicinal use of cromoglycic acid compounds” (Kyoto Pharmaceutical Industries, Ltd., priority 1997, dated 2001):

Test system: type I and type IV allergic dermatitis
Test: Type I and Type IV allergic dermatitis (repeat application of DNFB) auricle swelling
Format: in vivo, male BALB/c mice
Conditions: 100 mg/kg orally twice a day; for Increase in thickness of auricle by repeat application of 0.2% DNFB solution: mean ± standard error
Description: According to the method of Nagai et al., (Naoki Inagaki and Hiroichi Nagai, The 8th Spring Meeting of Japanese Society of Allergology, 1996), the inhibitory action of diethyl acetoacetylcromoglycate on type I and type IV allergic dermatitis was examined.
According to this method, a type I allergic reaction is induced in addition to a type IV allergic reaction due to repeat contact sensitization with antigen. […] The method is described in detail in the following.
Male 6-week-old BALB/c mice (Japan SLC, Inc.) were divided into two groups of control group and administration group including 10 mice each. A 0.5% methylcellulose solution (10 ml/kg) was forcefully administered orally to the control group and diethyl acetoacetylcromoglycate (100 mg/kg) was forcefully administered orally to the administration group twice a day for 36 days for each group. The thickness of both auricles of each mouse was measured with a dial thickness gauge (Mitutoyo Co.) under ether anesthesia before initial administration on day 1 after administration. After the initial administration on day 8 of the administration, the thickness of both auricles of each mouse was measured with a dial thickness gauge under ether anesthesia. 0.2% Dinitrofluorobenzene (DNFB) dissolved in acetone-olive oil (mixing ratio 3:1) was applied by 25 μl to the left and right auricles. After 24 hours from the application, the thickness of both auricles of each mouse was measured under ether anesthesia with a dial thickness gauge. Thereafter, similar manipulation was repeated 4 times at a week interval. At the 5th application, the thickness of both auricles was also measured at 1 and 4 hours after the application.
Changes in the thickness of both auricles of each mouse were calculated from the measurement values of the thickness of the both auricles before the initial application. The average of changes in the thickness of the left and right auricles of each mouse was taken as the variation of the mouse.

`CCOC(=O)c1cc(=O)c2c(OCC(COc3cccc4oc(C(=O)OCC)cc(=O)c34)OC(=O)CC(C)=O)cccc2o1` [Example 1, Diethyl Acetoacetylcromoglycate] was tested, and the “Increase in thickness of auricle by repeat application of 0.2% DNFB solution” value (shortened to “Increase in thickness … of 0.2% DNFB solution”) (1 hr after 5th application (type I allergic reaction), control 0.098 ± 0.012, p < 0.05) was 0.058 ± 0.007 mm, the “Increase in thickness … of 0.2% DNFB solution” value (4 hr after 5th application, control 0.063 ± 0.007) was 0.056 ± 0.007 mm and the “Increase in thickness … of 0.2% DNFB solution” value (24 hr after 1st application, control 0.011 ± 0.002) was 0.012 ± 0.002 mm. For the same molecule, the “Increase in thickness … of 0.2% DNFB solution” value (24 hr after 2nd application, control 0.048 ± 0.004, p < 0.05) was 0.037 ± 0.003 mm, the “Increase in thickness … of 0.2% DNFB solution” value (24 hr after 3rd application, control 0.092 ± 0.009, p < 0.01) was 0.061 ± 0.005 mm and the “Increase in thickness … of 0.2% DNFB solution” value (24 hr after 4th application, control 0.141 ± 0.012, p < 0.01) was 0.095 ± 0.009 mm. The “Increase in thickness … of 0.2% DNFB solution” value (24 hr after 5th application, control 0.182 ± 0.015, p < 0.01) was 0.122 ± 0.010 mm, the “effect on swelling of the auricle (in words)” value (after the second application of DNFB, t-test with control group) was “significant inhibitory action on the swelling of the auricle after the second application” and the “Increase in thickness … of 0.2% DNFB solution” value (before 1st application, control 0.008 ± 0.003) was 0.008 ± 0.002 mm. The “Increase in thickness … of 0.2% DNFB solution” value (before 2nd application, control 0.033 ± 0.003) was 0.029 ± 0.003 mm, the “Increase in thickness … of 0.2% DNFB solution” value (before 3rd application, control 0.042 ± 0.005) was 0.035 ± 0.003 mm and the “Increase in thickness … of 0.2% DNFB solution” value (before 4th application, control 0.049 ± 0.004) was 0.040 ± 0.005 mm. The “Increase in thickness … of 0.2% DNFB solution” value (before 5th application, control 0.059 ± 0.006) was 0.048 ± 0.005 mm and the “effect on swelling of the auricle, type I allergic reaction (in words)” value (one hour after the fifth application of DNFB) was “significant inhibitory action on the swelling of the auricle”.
